Converted amounts (≈) assume the structure as drawn. “And” between values parts separate entries of the source, which are not always exact repeats. Equal entries are not always repeated. Where two headings read alike, the source gives them in different places.
Legend:
[1] = Recovery of polyphenols from grape stem extract with [Ch][DHP]/PPG400 ABS; format: physicochemical; details: 40 wt% PPG400 + 25 wt% [Ch][DHP], 25 °C, pH ~6, TLL ~101, ~5 mg extract per g ABS
Description: Grapes collected from Quinta das Carvalhas, Pinhao (Regiao Demarcada do Douro, Portugal), were first separated into stems, seeds, and skins. All samples were freeze-dried, ground into powder, and stored in a desiccator. Two grams of the grape stem powder was mixed with 100 mL of a water:ethanol mixture (1:1, v:v), followed by stirring for 2 h and sonication for 5 min. The sample was centrifuged at 10,000× g rpm for 15 min, and the pellet was re-extracted. The supernatant was collected, and the solvent was evaporated under vacuum using a rotary evaporator at 40 °C. […]
The quantification of polyphenols was carried out using HPLC (Knauer, Berlin, Germany), which includes a DAD detector and an Ascentis C18 (SUPELCO), Darmstadt, Germany, column with a particle size of 5 µm and dimensions 250 mm × 4.6 mm. […] Quantification in a complex sample after extraction from the real sample was achieved using a gradient mode, varying the mobile phase from 100% A to 100% B for 30 min.
Guided by the results from the optimization studies, polyphenols were extracted from grape stem extract with specific conditions in mind based on previously determined extraction parameters. […] The RE for GA towards the [Ch][DHP] phase was 78.64%, and quercetin was not detected in the grape stem extract. […]

[2] = set-up: method as in doi:10.2478/s11696-013-0417-6, doi:10.1016/0016-7037(88)90089-0; details: cited from earlier work
[3] = Solubility determination (UV spectroscopy of saturated solutions); format: physicochemical; details: thermodynamic from solid
Description: Quantification was carried out using calibration curves (R^2 > 0.99 in all cases) for each analyzed compound within the concentration range of 2.5 to 50 mg L^-1.

[4] = cited from earlier work
[5] = Partition of polyphenols in cholinium salt/IL + PPG400 + water aqueous biphasic systems; format: physicochemical; details: for increase in RE by increasing the TLL: TLL 56.88 to 101.43, polyphenol content 2.5 g per L of ABS, pH~6, 25 °C
Description: Considering previously established phase diagrams of ABSs, ternary mixtures within the biphasic region were prepared, containing 20 wt% salt/IL + 50 wt% PPG400 + 30 wt% of H2O +10 μL of polyphenol solution. The polyphenol solutions were prepared in 80 vol% ethanol, with concentrations of circa 2500 mg L^−1 for each compound. […] The selected compositions of ABSs and corresponding TLLs are given in the Supplementary Materials.
Each ABS was prepared in 1.5 mL microcentrifuge tubes by adding the appropriate amount of constituents to achieve a final weight of 1 g. All systems were vigorously agitated (Reax Top, Heidolph, Schwabach, Germany) and left for 2 h at 25 °C in a thermo-shaker incubator (ALEMADR-MSC, Colo Lab Experts, Novo Mesto, Slovenia). Following 5 min of centrifugation at 5000× g rpm (LLG-uniCFUGE 5, Meckenheim, Germany), the phases were carefully separated, and their weights and volumes were measured. After appropriate dilution and filtration using syringe filters (0.45 μm), the contents of polyphenols in the phases were quantified by high-performance liquid chromatography (HPLC), as described in Section 2.5.
The logarithmic distribution coefficients (logD) of the polyphenols were calculated as the ratio of the equilibrium concentration of each polyphenol in the PPG400-rich and IL/salt-rich phases, as follows:(1) logD=log [Polyphenol]PPG400-phase/[Polyphenol]IL/salt-phase.
The selectivities (S) with respect to gallic acid were calculated according to the following equation:(4) SGA/Polyphenol=DGA/DPolyphenol where the subscript “Polyphenol” stands for resveratrol or quercetin.
The quantification of polyphenols was carried out using HPLC (Knauer, Berlin, Germany), which includes a DAD detector and an Ascentis C18 (SUPELCO), Darmstadt, Germany, column with a particle size of 5 µm and dimensions 250 mm × 4.6 mm. Chromatographic separation of the target polyphenols occurred at a constant flow rate of 1 mL min^−1, the injection volume for all samples was 20 μL, and the temperature of the column was fixed at 45 °C, with 10% acetonitrile (v/v) as mobile phase A and pure acetonitrile as mobile phase B. For partition studies, isocratic conditions were used for the determination of each compound (A:B = 60:40). Quantification in a complex sample after extraction from the real sample was achieved using a gradient mode, varying the mobile phase from 100% A to 100% B for 30 min.

[6] = set-up: method as in doi:10.1016/j.afres.2023.100381; details: ABSs of [Ch]Cl and different surfactants, rice husk hydrolysate; cited from earlier work
[7] = [Ch][DHP]/PPG400 ABS, tie line ~101, lowest phase volume ratio (0.20), 25 °C

For `O=C(O)c1cc(O)c(O)c(O)c1` [GA, gallic acid], the “recovery efficiency from grape stem extract towards the [Ch][DHP] phase” value [1] is given as 78.64%, the “recovery efficiency from grape stem extract towards the [Ch][DHP] phase” value ([1]; listed as gallic acid) is given as 78% and the degradation ([2]; at 100 °C) is given as 30%. The “temperature from which degradation begins” value [2] was 60 °C, the solubility at 12 h ([3]; [Ch][DHP]/water 50:50, aqueous with cosolvent or surfactant or cyclodextrin, around 50 wt% [Ch][DHP] in water, 25 °C, read-out: maximal solubility in the [Ch][DHP]-rich phase) was 140 mg/mL (≈ 822 mM) and the solubility in water ([4]; no reference and method not given) was 14.38 mg/mL (≈ 84.5 mM). The “recovery efficiency (RE) toward the IL-rich phase” value ([5]; [Ch][DHP]-based ABS, 20 wt% IL + 50 wt% PPG400, TLL 101.43, volume ratio 0.50, 25 °C) was 92.31 ± 2.31% and 90%, the “increase in RE by increasing the TLL” value ([5]; [Ch][DHP]/PPG400 ABS) was ~2% and the “recovery efficiency (RE) toward the IL-rich phase” value [5, 7] was 88.7 ± 3.91%.
For `Oc1ccc(/C=C/c2cc(O)cc(O)c2)cc1` [RSV, trans-resveratrol], the solubility at 12 h ([3]; PPG400/water 80:20 (v/v), aqueous with cosolvent or surfactant or cyclodextrin, PPG400/water 80:20, 25 °C, not the maximum solubility, read-out: solubility in PPG/water system matching the PPG phase) is listed as ≥ 100 mg/mL, the “solubility in pure water” value [4] is listed as 0.039 mg/mL (≈ 0.171 mM) and the “increase in RE by increasing the TLL” value ([5]; [Ch][DHP]/PPG400 ABS) is listed as “circa 7%”.
In the case of `COc1cc(/C=C/C(=O)O)ccc1O` [ferulic acid], the “yield in the surfactant-rich phase” value [6] is given as “over 90%”.
For `O=c1c(O)c(-c2ccc(O)c(O)c2)oc2cc(O)cc(O)c12` [QC, quercetin], the “selectivity SGA/QC (DGA/DQC)” value ([5]; [Ch][DHP]-based ABS, 25 °C) was > 1000, the “increase in RE by increasing the TLL” value ([5]; [Ch][DHP]/PPG400 ABS) was ~9% and the “recovery efficiency (RE) toward the PPG-rich phase” value [5, 7] was 55.70 ± 2.13%.
For `O=C(O)/C=C/c1ccc(O)cc1` [p-coumaric acid], the “yield in the surfactant-rich phase” value [6] is given as “over 90%”.
